Measurements from PubChem BioAssay (NCI).
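At the GI50, growth is halved. Definition used: TGI = concentration required for complete inhibition of growth.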

Key:
Assay in all cases: NCI anticancer screen, dose series, 384-well format
ACHN renal = system: ACHN renal
HOP-92 NSCLC = system: HOP-92 NSCLC
IGROV1 ovarian = system: IGROV1 ovarian
A498 renal = system: A498 renal
HCC-2998 colon = system: HCC-2998 colon
NCI-H460 NSCLC = system: NCI-H460 NSCLC
NCI-H226 lung = system: NCI-H226 lung
OVCAR-3 ovarian = system: OVCAR-3 ovarian
K-562 leukemia = system: K-562 leukemia
HCT-15 colon = system: HCT-15 colon
HL-60(TB) leukemia = system: HL-60(TB) leukemia
RPMI-8226 leukemia = system: RPMI-8226 leukemia
HOP-62 NSCLC = system: HOP-62 NSCLC
CCRF-CEM leukemia = system: CCRF-CEM leukemia
PC-3 prostate = system: PC-3 prostate
M14 melanoma = system: M14 melanoma
UACC-62 melanoma = system: UACC-62 melanoma
SNB-19 CNS = system: SNB-19 CNS
SNB-75 CNS = system: SNB-75 CNS
T-47D breast = system: T-47D breast
SN12C renal = system: SN12C renal
CAKI-1 renal = system: CAKI-1 renal
MALME-3M melanoma = system: MALME-3M melanoma
NCI-H522 lung = system: NCI-H522 lung
OVCAR-8 ovarian = system: OVCAR-8 ovarian
SF-539 CNS = system: SF-539 CNS
NCI-H23 lung = system: NCI-H23 lung
MDA-MB-468 breast = system: MDA-MB-468 breast
HS 578T breast = system: HS 578T breast

c1ccc(-c2nn3c(c2-c2ccnc4cc(OCCN5CCOCC5)ccc24)CCC3)nc1
GI50 (ACHN renal): 66.9 µM
TGI (ACHN renal): > 100 µM
GI50 (HOP-92 NSCLC): 85.6 µM
TGI (HOP-92 NSCLC): > 100 µM
GI50 (IGROV1 ovarian): > 100 µM
TGI (IGROV1 ovarian): > 100 µM
GI50 (A498 renal): > 100 µM
TGI (A498 renal): > 100 µM
GI50 (HCC-2998 colon): > 100 µM
TGI (HCC-2998 colon): > 100 µM
GI50 (NCI-H460 NSCLC): 51.3 µM
TGI (NCI-H460 NSCLC): > 100 µM
GI50 (NCI-H226 lung): > 100 µM
TGI (NCI-H226 lung): > 100 µM
GI50 (OVCAR-3 ovarian): > 100 µM
TGI (OVCAR-3 ovarian): > 100 µM
GI50 (K-562 leukemia): 23.4 µM
TGI (K-562 leukemia): > 100 µM
GI50 (HCT-15 colon): 37.3 µM
TGI (HCT-15 colon): > 100 µM
GI50 (HL-60(TB) leukemia): > 100 µM
TGI (HL-60(TB) leukemia): > 100 µM
GI50 (RPMI-8226 leukemia): 48 µM
TGI (RPMI-8226 leukemia): > 100 µM
GI50 (HOP-62 NSCLC): > 100 µM
TGI (HOP-62 NSCLC): > 100 µM
GI50 (CCRF-CEM leukemia): 39.3 µM
TGI (CCRF-CEM leukemia): > 100 µM
GI50 (PC-3 prostate): > 100 µM
TGI (PC-3 prostate): > 100 µM
GI50 (M14 melanoma): > 100 µM
TGI (M14 melanoma): > 100 µM
GI50 (UACC-62 melanoma): > 100 µM
TGI (UACC-62 melanoma): > 100 µM
GI50 (SNB-19 CNS): > 100 µM
TGI (SNB-19 CNS): > 100 µM
GI50 (SNB-75 CNS): > 100 µM
TGI (SNB-75 CNS): > 100 µM
GI50 (T-47D breast): > 100 µM
TGI (T-47D breast): > 100 µM
GI50 (SN12C renal): > 100 µM
TGI (SN12C renal): > 100 µM
GI50 (CAKI-1 renal): 62.4 µM
TGI (CAKI-1 renal): > 100 µM
GI50 (MALME-3M melanoma): > 100 µM
TGI (MALME-3M melanoma): > 100 µM
GI50 (NCI-H522 lung): 58.2 µM
TGI (NCI-H522 lung): > 100 µM
GI50 (OVCAR-8 ovarian): > 100 µM
TGI (OVCAR-8 ovarian): > 100 µM
GI50 (SF-539 CNS): > 100 µM
TGI (SF-539 CNS): > 100 µM
GI50 (NCI-H23 lung): > 100 µM
TGI (NCI-H23 lung): > 100 µM
GI50 (MDA-MB-468 breast): 40.3 µM
TGI (MDA-MB-468 breast): > 100 µM
GI50 (HS 578T breast): > 100 µM
TGI (HS 578T breast): > 100 µM
